Test system: oral tissue cells based on EpiOral Tissue Model
Assay: Oral irritation evaluation, EpiOral Tissue Model
Format: cell-based
Description: The oral irritation evaluation was conducted to test the surfactant mildness and oral irritation. The test sample solution was prepared in aqueous solution with 1% active content at pH of 7. The test sample solutions were applied to the oral tissue cells based on EpiOral Tissue Model provided by Mattek Corp. The viability of the cells over time was measured and used to calculate the time of exposure until viability is reduced to 50%, which is indicated by ET-50.

| Molecule | ET-50 based on EpiOral Model (pH 7) [min] | Oral Irritation Classification (pH 7) | Oral Irritation Classification (aqueous solution with 1% active content at pH of 7, class from ET-50) | ET-50 based on EpiOral Model (aqueous solution with 1% active content at pH of 7, time of exposure until viability is reduced to 50%) [min] |
| --- | --- | --- | --- | --- |
| Cocamidopropyl Betaine [Dehyton ® PK 45] | 181.0 | Mildly irritation | – | – |
| PEG-12 [Pluracare ® E-600] | – | None to minimal irritation | – | – |
| CCCCCCCCCCCCOS(=O)(=O)[O-].[Na+] [Texapon ® OC-N, Sodium Lauryl Sulfate] | – | – | Moderately irritation | 116.7 |
